Where a SMILES comes first, the peptide text is derived from it. Bridges are numbered along the chain shown (N, C = ends). [ ]: non-standard residue; d: D form. Aib = CC(C)(N)C(=O)O
Columns and labels:
Format in all cases: cell-based
[1] = molecular target: T1, glucagon receptor (Homo sapiens, UniProt P47871); assay: cAMP synthesis functional assay (firefly luciferase reporter in HEK293 cells), glucagon receptor
T1 construct: expressed in transfected cells; host or cells: HEK293

[2] = molecular target: T2, GLP-1 receptor (Homo sapiens, UniProt P43220); assay: cAMP synthesis functional assay (firefly luciferase reporter in HEK293 cells), GLP-1 receptor
T2 construct: expressed in transfected cells; host or cells: HEK293
T2 sequence (P43220 24-463, species assumed): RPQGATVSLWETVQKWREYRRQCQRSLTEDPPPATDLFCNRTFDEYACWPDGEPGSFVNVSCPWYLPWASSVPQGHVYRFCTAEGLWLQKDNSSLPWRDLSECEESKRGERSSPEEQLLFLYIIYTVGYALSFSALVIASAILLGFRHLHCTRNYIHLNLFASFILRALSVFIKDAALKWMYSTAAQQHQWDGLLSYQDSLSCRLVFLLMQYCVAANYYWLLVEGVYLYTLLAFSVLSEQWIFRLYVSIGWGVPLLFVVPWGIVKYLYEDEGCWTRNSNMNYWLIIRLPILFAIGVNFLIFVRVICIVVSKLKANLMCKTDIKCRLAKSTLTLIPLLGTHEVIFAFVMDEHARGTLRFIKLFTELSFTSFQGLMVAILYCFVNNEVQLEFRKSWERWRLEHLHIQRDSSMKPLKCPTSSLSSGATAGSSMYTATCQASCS

[3] = molecular target: T3, GIP receptor (Homo sapiens, UniProt P48546); assay: cAMP synthesis functional assay (firefly luciferase reporter in HEK293 cells), GIP receptor
T3 construct: expressed in transfected cells; host or cells: HEK293
T3 sequence (P48546 22-466): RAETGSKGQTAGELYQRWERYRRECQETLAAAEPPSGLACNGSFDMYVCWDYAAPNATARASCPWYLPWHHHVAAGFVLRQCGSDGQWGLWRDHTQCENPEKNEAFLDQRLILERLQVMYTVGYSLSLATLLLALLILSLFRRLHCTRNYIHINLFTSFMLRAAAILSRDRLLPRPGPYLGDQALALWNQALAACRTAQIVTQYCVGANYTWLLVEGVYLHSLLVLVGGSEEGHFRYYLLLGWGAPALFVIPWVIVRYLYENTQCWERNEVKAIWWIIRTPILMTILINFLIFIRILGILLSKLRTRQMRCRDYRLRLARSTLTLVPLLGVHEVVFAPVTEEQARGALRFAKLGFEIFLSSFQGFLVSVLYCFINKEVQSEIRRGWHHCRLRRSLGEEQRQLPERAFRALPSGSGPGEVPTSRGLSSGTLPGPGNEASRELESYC

[4] = system: glucagon receptor, GLP-1 receptor or GIP receptor; assay: Agonist profile across receptors assigned from the cAMP reporter assay data; details: assigned from the in vitro EC50 data of Tables 1-4
[5] = relative to the standard (Std.) EC50 of the same run
[6] = Table 1, relative to the native hormone of the indicated receptor

T1 sequence (P47871 26-477): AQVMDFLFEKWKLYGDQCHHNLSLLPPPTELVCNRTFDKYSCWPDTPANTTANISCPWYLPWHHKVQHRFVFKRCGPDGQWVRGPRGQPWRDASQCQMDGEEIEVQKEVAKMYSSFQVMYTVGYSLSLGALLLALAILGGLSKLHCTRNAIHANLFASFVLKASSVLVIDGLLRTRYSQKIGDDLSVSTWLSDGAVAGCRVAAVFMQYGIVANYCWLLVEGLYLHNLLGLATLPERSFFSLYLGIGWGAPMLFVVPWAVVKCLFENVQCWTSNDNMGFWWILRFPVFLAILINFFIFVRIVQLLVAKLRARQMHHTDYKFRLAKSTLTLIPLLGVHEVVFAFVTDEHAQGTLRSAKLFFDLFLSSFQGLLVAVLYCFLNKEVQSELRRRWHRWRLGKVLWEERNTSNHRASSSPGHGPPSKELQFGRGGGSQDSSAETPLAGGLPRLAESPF

| Glucagon Receptor relative activity ([1]; Table 2) [%] | GLP-1 Receptor relative activity ([2]; Table 2) [%] | GIP Receptor relative activity ([3]; Table 2) [%] | SMILES | Glucagon Receptor relative activity [1, 5] [%] | GLP-1 Receptor relative activity [2, 5] [%] | GIP Receptor relative activity [3, 5] [%] | receptor activity profile (glucagon / GLP-1 / GIP agonism) [4] | EC50 ([2]; GLP-1 Receptor EC50, cAMP luciferase reporter assay as in Example 16) [nM] | Glucagon Receptor relative activity [1, 6] [%] | EC50 ([2]; GLP-1 Receptor EC50, nM, Table 1) [nM] | GLP-1 Receptor relative activity [2, 6] [%] | GIP Receptor relative activity [3, 6] [%] |
| --- | --- | --- | --- | --- | --- | --- | --- | --- | --- | --- | --- | --- |
| – | – | – | CC[C@H](C)[C@H](NC(=O)[C@H](CO)NC(=O)[C@H](Cc1ccc(O)cc1)NC(=O)[C@H](CC(=O)O)NC(=O)[C@H](CO)NC(=O)[C@H](CO)NC(=O)[C@H](Cc1ccccc1)NC(=O)[C@@H](NC(=O)CNC(=O)[C@H](CCC(N)=O)NC(=O)C(C)(C)NC(=O)[C@@H](N)Cc1ccc(O)cc1)[C@@H](C)O)C(=O)N[C@@H](Cc1ccc(O)cc1)C(=O)N[C@@H](CC(C)C)C(=O)N[C@@H](CC(=O)O)C(=O)N[C@@H](CCCCN)C(=O)N[C@@H](CCC(N)=O)C(=O)N[C@@H](C)C(=O)N[C@@H](C)C(=O)NC(C)(C)C(=O)N[C@@H](CCC(=O)O)C(=O)N[C@@H](Cc1ccccc1)C(=O)N[C@H](C(=O)N[C@@H](CC(N)=O)C(=O)N[C@@H](Cc1c[nH]c2ccccc12)C(=O)N[C@@H](CC(C)C)C(=O)N[C@@H](CC(C)C)C(=O)N[C@@H](C)C(=O)NCC(=O)NCC(=O)N1CCC[C@H]1C(=O)N[C@@H](CO)C(=O)N[C@@H](CO)C(=O)NCC(=O)N[C@@H](C)C(=O)N1CCC[C@H]1C(=O)N1CCC[C@H]1C(=O)N1CCC[C@H]1C(=O)N[C@@H](CO)C(=O)N[C@@H](CS)C(N)=O)C(C)C [mt-324] (H-Y[Aib]QGTFSSDYSIYLDKQAA[Aib]EFVNWLLAGGPSSGAPPPSC-NH2; N-terminus assumed) | 6.41 | 9.68 | 30.23 | exhibited activity at the GIP, GLP-1, and glucagon receptors | – | – | – | – | – |
| 14.08 | 58.91 | 16.84 | CC[C@H](C)[C@H](NC(=O)[C@H](CO)NC(=O)[C@H](Cc1ccc(O)cc1)NC(=O)[C@H](CC(=O)O)NC(=O)[C@H](CO)NC(=O)[C@@H](NC(=O)[C@H](Cc1ccccc1)NC(=O)[C@@H](NC(=O)CNC(=O)[C@H](CCC(N)=O)NC(=O)C(C)(C)NC(=O)[C@@H](N)Cc1ccc(O)cc1)[C@@H](C)O)[C@@H](C)O)C(=O)N[C@@H](Cc1ccc(O)cc1)C(=O)N[C@@H](CC(C)C)C(=O)N[C@@H](CC(=O)O)C(=O)N[C@@H](CCC(=O)O)C(=O)N[C@@H](CCC(N)=O)C(=O)N[C@@H](C)C(=O)N[C@@H](C)C(=O)NC(C)(C)C(=O)N[C@@H](CCC(=O)O)C(=O)N[C@@H](Cc1ccccc1)C(=O)N[C@H](C(=O)N[C@@H](CS)C(=O)N[C@@H](Cc1c[nH]c2ccccc12)C(=O)N[C@@H](CC(C)C)C(=O)N[C@@H](CC(C)C)C(=O)N[C@@H](C)C(=O)NCC(N)=O)C(C)C [mt-258] (H-Y[Aib]QGTFTSDYSIYLDEQAA[Aib]EFVCWLLAG-NH2; N-terminus assumed) | – | – | – | exhibited activities of glucagon/GLP-1/GIP triagonists | – | – | – | – | – |
| – | – | – | CC[C@H](C)[C@H](NC(=O)[C@H](CO)NC(=O)[C@H](Cc1ccc(O)cc1)NC(=O)[C@H](CC(=O)O)NC(=O)[C@H](CO)NC(=O)[C@@H](NC(=O)[C@H](Cc1ccccc1)NC(=O)[C@@H](NC(=O)CNC(=O)[C@H](CCC(N)=O)NC(=O)C(C)(C)NC(=O)[C@@H](N)Cc1ccc(O)cc1)[C@@H](C)O)[C@@H](C)O)C(=O)N[C@@H](Cc1ccc(O)cc1)C(=O)N[C@@H](CC(C)C)C(=O)N[C@@H](CC(=O)O)C(=O)N[C@@H](CCCN)C(=O)N[C@@H](CCC(N)=O)C(=O)N[C@@H](C)C(=O)N[C@@H](C)C(=O)NC(C)(C)C(=O)N[C@@H](CCC(=O)O)C(=O)N[C@@H](Cc1ccccc1)C(=O)N[C@H](C(=O)N[C@@H](CC(N)=O)C(=O)N[C@@H](Cc1c[nH]c2ccccc12)C(=O)N[C@@H](CC(C)C)C(=O)N[C@@H](CC(C)C)C(=O)N[C@@H](C)C(=O)NCC(=O)NCC(=O)N1CCC[C@H]1C(=O)N[C@@H](CO)C(=O)N[C@@H](CO)C(=O)NCC(=O)N[C@@H](C)C(=O)N1CCC[C@H]1C(=O)N1CCC[C@H]1C(=O)N1CCC[C@H]1C(=O)N[C@@H](CO)C(=O)N[C@@H](CS)C(N)=O)C(C)C [mt-275] | 62.15 | 104.41 | 112.10 | exhibited activity at the GIP, GLP-1, and glucagon receptors | 0.0068 | – | – | – | – |
| – | – | – | CC[C@H](C)[C@H](NC(=O)[C@H](CO)NC(=O)[C@H](Cc1ccc(O)cc1)NC(=O)[C@H](CC(=O)O)NC(=O)[C@H](CO)NC(=O)[C@@H](NC(=O)[C@H](Cc1ccccc1)NC(=O)[C@@H](NC(=O)CNC(=O)[C@H](CCC(N)=O)NC(=O)C(C)(C)NC(=O)[C@@H](N)Cc1ccc(O)cc1)[C@@H](C)O)[C@@H](C)O)C(=O)N[C@@H](Cc1ccc(O)cc1)C(=O)N[C@@H](CC(C)C)C(=O)N[C@@H](CC(=O)O)C(=O)N[C@H]1CCC(=O)NCCCC[C@@H](C(=O)N[C@@H](CCC(=O)O)C(=O)N[C@@H](Cc2ccccc2)C(=O)N[C@H](C(=O)N[C@@H](CC(N)=O)C(=O)N[C@@H](Cc2c[nH]c3ccccc23)C(=O)N[C@@H](CC(C)C)C(=O)N[C@@H](CC(C)C)C(=O)N[C@@H](C)C(=O)NCC(=O)NCC(=O)N2CCC[C@H]2C(=O)N[C@@H](CO)C(=O)N[C@@H](CO)C(=O)NCC(=O)N[C@@H](C)C(=O)N2CCC[C@H]2C(=O)N2CCC[C@H]2C(=O)N2CCC[C@H]2C(=O)N[C@@H](CO)C(=O)N[C@@H](CS)C(N)=O)C(C)C)NC(=O)[C@H](C)NC(=O)[C@H](C)NC(=O)[C@H](CCC(N)=O)NC1=O [mt-165] (H-Y[Aib]QGTFTSDYSIYLDEQAAKEFVNWLLAGGPSSGAPPPSC-NH2; lactam 16-20; N-terminus assumed) | – | – | – | exemplary GLP-1/GIP/glucagon triagonist peptides | – | 18.81 | 0.023 | 147.83 | 27.03 |
| – | – | – | CC[C@H](C)[C@H](NC(=O)[C@H](CO)NC(=O)[C@H](Cc1ccc(O)cc1)NC(=O)[C@H](CC(=O)O)NC(=O)[C@H](CO)NC(=O)[C@@H](NC(=O)[C@H](Cc1ccccc1)NC(=O)[C@@H](NC(=O)CNC(=O)[C@H](CCC(N)=O)NC(=O)C(C)(C)NC(=O)[C@@H](N)Cc1ccc(O)cc1)[C@@H](C)O)[C@@H](C)O)C(=O)N[C@@H](Cc1ccc(O)cc1)C(=O)N[C@@H](CC(C)C)C(=O)N[C@@H](CC(=O)O)C(=O)N[C@H]1CCC(=O)NCCCC[C@@H](C(=O)N[C@@H](CCC(=O)O)C(=O)N[C@@H](Cc2ccccc2)C(=O)N[C@H](C(=O)N[C@@H](CS)C(=O)N[C@@H](Cc2c[nH]c3ccccc23)C(=O)N[C@@H](CC(C)C)C(=O)N[C@@H](CC(C)C)C(=O)N[C@@H](C)C(=O)NCC(=O)NCC(=O)N2CCC[C@H]2C(=O)N[C@@H](CO)C(=O)N[C@@H](CO)C(=O)NCC(=O)N[C@@H](C)C(=O)N2CCC[C@H]2C(=O)N2CCC[C@H]2C(=O)N2CCC[C@H]2C(=O)N[C@@H](CO)C(N)=O)C(C)C)NC(=O)[C@H](C)NC(=O)[C@H](C)NC(=O)[C@H](CCC(N)=O)NC1=O [mt-158] (H-Y[Aib]QGTFTSDYSIYLDEQAAKEFVCWLLAGGPSSGAPPPS-NH2; lactam 16-20; N-terminus assumed) | – | – | – | exemplary GLP-1/GIP/glucagon triagonist peptides | – | 14.90 | – | 102.94 | 17.82 |

From US9062124B2, “GIP-based mixed agonists for treatment of metabolic disorders and obesity” (priority 2008, dated 2015)
